The target in one data set is T1, rat APJ receptor (Rattus norvegicus, UniProt Q9JHG3).
T1 construct: expressed in transfected cells
T1 sequence (Q9JHG3 1-377): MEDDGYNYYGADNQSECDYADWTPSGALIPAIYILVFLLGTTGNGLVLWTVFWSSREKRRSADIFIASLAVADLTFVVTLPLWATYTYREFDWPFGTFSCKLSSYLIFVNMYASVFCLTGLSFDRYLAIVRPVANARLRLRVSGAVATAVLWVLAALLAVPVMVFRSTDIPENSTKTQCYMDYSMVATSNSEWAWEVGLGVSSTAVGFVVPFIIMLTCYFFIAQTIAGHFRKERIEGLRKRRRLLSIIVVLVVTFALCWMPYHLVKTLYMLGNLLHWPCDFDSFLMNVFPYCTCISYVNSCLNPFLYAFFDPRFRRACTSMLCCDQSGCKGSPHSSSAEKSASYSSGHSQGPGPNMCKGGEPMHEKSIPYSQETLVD
As to the kind of experiment: [35S] GTPγS assay, rat APJ receptor. Format: biochemical. The procedure: The membranes were incubated with modified peptides in the assay buffer. […] Bound [^35S] GTPγS was separated from free radiolabel by filtration. The filter bound radioactivity was determined by liquid scintillation counting.

The nature of data set [1]: In vitro stability in rat plasma. Format: in vitro ADME. The procedure: (§1) Apelin peptides were spiked into rat plasma, liver homogenate, and kidney homogenate, which were obtained from commercial sources, to a final concentration of 5 μM. The samples were then incubated at 37° C. over a period of 4 hr. […] In a typical experiment, an aliquot of 100 μL of sample was taken from the incubation vial, followed by addition of 300 μL of MeOH containing internal standard. The quenched sample was centrifuged at 5500 g for 15 min after 15 min vortex in room temperature. The supernatant was then analyzed by high resolution LC-MS. […] In vitro plasma, […], and kidney stability results are shown below in Table 14.

Data set [2] can be described thus: In vitro stability in rat liver homogenate. Format: in vitro ADME. Particulars: tissue homogenate. As to the method:
as §1

The mark [3] stands for this setting: rat APJ receptor, read-out: EC50 Rat APJ Receptor.

The record followed here is patent publication US11807693B2 (priority 2014, dated 2023).

Read-outs that look alike come from different tables or passages of the source. Starred links: 1 amine or outer side, 2 acyl side, 3 side chain; linkers in the order of their positions; H or OH if unused. Non-standard residues stand in square brackets, D forms with d. Residues, ends and D or L forms follow the SMILES beside them. *: point of attachment. Oic = O=C(O)[C@@H]1C[C@@H]2CCCC[C@@H]2N1; Phe(4-Cl) = N[C@@H](Cc1ccc(Cl)cc1)C(=O)O; γGlu = O=C(O)[C@H](CCC(=O)[*:2])N[*:1]; d(β3hF) = N[C@@H](CC(=O)O)Cc1ccccc1; NMeR = CN[C@@H](CCCNC(=N)N)C(=O)O; Palmitoyl = CCCCCCCCCCCCCCCC(=O)*; X1 = O=C(CN(C1CCNCC1)[*:1])[*:2]; 3Pal = N[C@@H](Cc1cccnc1)C(=O)O; Cha = N[C@@H](CC1CCCCC1)C(=O)O; β3hP = O=C(O)C[C@@H]1CCCN1; Pip = O=C(O)[C@@H]1CCCCN1; Nle = CCCC[C@H](N)C(=O)O; AEEA = NCCOCCOCC(=O)O; Aib = CC(C)(N)C(=O)O Where only a bound is given, the exact number is not on record here.

Take `CC[C@H](NC(=O)[C@H](CC(N)=O)NC(=O)[C@H](Cc1c[nH]cn1)NC(=O)[C@H](CCCCN)NC(=O)[C@H](CCCNC(=N)N)NC(=O)[C@H](CC(C)C)NC(=O)[C@@H](N)CCCCN)C(=O)N[C@@H](CC(C)C)C(=O)N[C@@H](CCC(N)=O)C(=O)N[C@@H](CCCNC(=N)N)C(=O)N[C@@H](CCCNC(=N)N)C(=O)N[C@@H](CC)C(=O)N[C@@H](CCSC)C(=O)N1CCC[C@H]1C(=O)N[C@@H](CC(C)C)C(=O)N[C@@H](Cc1c[nH]cn1)C(=O)N[C@@H](CO)C(=O)N[C@@H](CCCNC(=N)N)C(=O)N[C@H](C(=O)N1CCC[C@H]1C(=O)N[C@@H](Cc1ccccc1)C(=O)N1CCC[C@H]1C(=O)O)C(C)C` [compound 14]: on rat APJ receptor (setting [3]), the EC50 came out at 0.0324 µM. The fraction remaining at 4 h, 5 μM in data set [1] and in data set [2] was less than 1% throughout. For `CCCC[C@H](NC(=O)[C@@H]1CCCN1C(=O)CNC(=O)[C@H](CCCCN)NC(=O)[C@H](Cc1c[nH]cn1)NC(=O)[C@H](CO)NC(=O)[C@](C)(CC(C)C)NC(=O)[C@H](CCCCNC(=N)N)NC(=O)[C@@H]1CCCN1C(=O)[C@@H](CCCNC(=N)N)NC(=O)[C@H](CCC(N)=O)NC(C)=O)C(=O)N1CCC[C@H]1C(=O)N[C@@H](Cc1ccc(Cl)cc1)C(=O)O` [compound 70], the EC50 at rat APJ receptor (setting [3]) was found to be 0.00974 µM. The fraction remaining at 4 h, 5 μM in data set [1] came to 86.1%; in data set [2], 84.9%. As to `CCCCCCCCCCCCCCCC(=O)N[C@@H](CCC(=O)NCCOCCOCC(=O)NCCOCCOCC(=O)N[C@H](CCC(N)=O)C(=O)N[C@@H](CCCNC(=N)N)C(=O)N1CCC[C@H]1C(=O)N(C)[C@@H](CCCNC(=N)N)C(=O)N[C@@H](CC1CCCCC1)C(=O)N[C@@H](CO)C(=O)N[C@@H](Cc1c[nH]cn1)C(=O)N[C@@H](Cc1cccnc1)C(=O)NCC(=O)N1[C@H](C(=O)N[C@@H](CCCC)C(=O)N2CCC[C@H]2CC(=O)N[C@@H](CC(=O)O)Cc2ccccc2)C[C@@H]2CCCC[C@@H]21)C(=O)O` [compound 620] ({Palmitoyl-γGlu-AEEA-AEEA}-[dQ]RP[NMeR][Cha]SH[3Pal]G[Oic][Nle][β3hP][d(β3hF)]-OH), the EC50 on rat APJ receptor (setting [3]) stood at 0.0149 µM. The same measure, in the same setting: for `CCCCCCCCCCCCCCCC(=O)N[C@@H](CCC(=O)NCCOCCOCC(=O)NCCOCCOCC(=O)N[C@H](CCC(N)=O)C(=O)N[C@@H](CCCNC(=N)N)C(=O)N1CCC[C@H]1C(=O)N(C)[C@@H](CCCNC(=N)N)C(=O)N[C@@H](CC1CCCCC1)C(=O)N[C@@H](CO)C(=O)N[C@@H](Cc1c[nH]cn1)C(=O)N(CC(=O)NCC(=O)N1[C@H](C(=O)N[C@@H](CCCC)C(=O)N2CCC[C@H]2CC(=O)N[C@@H](CC(=O)O)Cc2ccccc2)C[C@@H]2CCCC[C@@H]21)C1CCNCC1)C(=O)O` [compound 633] ({Palmitoyl-γGlu-AEEA-AEEA}-[dQ]RP[NMeR][Cha]SH[X1]G[Oic][Nle][β3hP][d(β3hF)]-OH) the value was more than 4.17 µM. The same measure, in the same setting: to `CCCCCCCCCCCCCCCC(=O)N[C@@H](CCC(=O)NCCOCCOCC(=O)NCCOCCOCC(=O)N[C@H](CCC(N)=O)C(=O)N(CC(=O)N1CCC[C@H]1C(=O)N(C)[C@@H](CCCNC(=N)N)C(=O)N[C@@H](CC1CCCCC1)C(=O)N[C@@H](CO)C(=O)N[C@@H](Cc1c[nH]cn1)C(=O)N[C@@H](CCCCN)C(=O)NCC(=O)N1CCCC[C@H]1C(=O)N[C@@H](CCCC)C(=O)NC(C)(C)C(=O)N[C@@H](Cc1ccc(Cl)cc1)C(=O)O)C1CCNCC1)C(=O)O` [compound 646] ({Palmitoyl-γGlu-AEEA-AEEA}-[dQ][X1]P[NMeR][Cha]SHKG[Pip][Nle][Aib][Phe(4-Cl)]-OH) belongs 0.000994 µM. Consider “{H2}[MerPr](10K mPEGacetamide)QRPRLSHKGPMPF{COOH} (N-terminal MerPr 10K mPEG acetamide; source: /note="N-term MerPr(10KmPEGacetamide)") [SEQ ID NO: 110, reference compound]”, for which the EC50 with rat APJ receptor (aqueous stock, absence of DMSO, read-out: rAPJ EC50) turned out to be 0.39 µM.
